By logP is commonly meant a log measure of how a compound divides between an organic and an aqueous phase.

The target of data set [1] is T1, human serum albumin (HSA) (Homo sapiens, UniProt P02768).
T1 construct: purchased Sigma-Aldrich Chemical Co. (St. Louis, MO, USA)
Description: Binding constants of DPH and OG with HSA by increase in the probe's fluorescence (titration with HSA). As to the method:
The slit widths were set at 10 nm for both excitation and emission wavelengths, and a 3 mL quartz cuvette with a 10 mm path length and that was magnetically stirred was used during the measurements. The experiments were performed in pure water or solutions containing 1.0 mol L^−1 NaCl, 10 and 20% (w/w) of 1,4-dioxane. […] After each addition, the mixtures were incubated for 2 min before the fluorescence measurements. Equation (2) was applied to determine the binding constant. […] The association constant (Ka) was calculated as 1/Kd. The same experimental protocol was used to determine the binding constant with OG. In this case, the fixed amount of OG was 5.0 µmol L^−1 and HSA 0–25.0 µmol L^−1. The excitation was set at 305 nm, and the emission was 320 to 450 nm. The non-linear fitting was obtained using the GraphPad Prism version 8.00 for Windows (GraphPad Software, San Diego, CA, USA). (2) F−F0/F∞−F0=L+[P]+Kd−L+[P]+Kd)^2−4[L][P]/2[L]

The target of data set [2] is T1, human serum albumin (HSA). Description: Time-resolved fluorescence (average lifetime) of DPH, free and complexed with HSA. As to the method: The measurements were performed using a mini-tau filter-based fluorescence lifetime spectrometer coupled to a Time-Correlated Single Photon Counting (TCSPC) system (Edinburgh Instruments, Livingston, UK). The excitation was performed using a 370 ± 10 nm picosecond pulsed laser, and the emission was using a […] interference filter. The fluorescence decays were fitted using the multi-exponential decay model, Equation (5), and the average lifetime <τ> was calculated using Equation (6). The quality of the fit was assessed by χ^2 values and residuals. […] (5) IT=∑i=1nfie^−T/τi (6) <τ>=∑i=1nfiτi

Data set [3] has as its target T1, human serum albumin (HSA). Put plainly: Binding of quercetin or rutin with HSA by quenching of the protein's intrinsic fluorescence. The following applies: pure water vs 20% 1,4-dioxane, fit to Equation (3). On the procedure:
The interactions between HSA and quercetin or rutin were evaluated by quenching the intrinsic fluorescence of the protein. The excitation was set at 295 nm, and the emission at 310 to 410 nm. […] After each addition of the ligands, the mixtures were incubated for 2 min before the fluorescence measurements. […] Since a 1:1 complex was assumed, n was set as 1. Therefore, Kd and Φ were treated as the fitting parameters in the non-linear least-squares analysis. Before determining the binding constants, the fluorescent intensities were corrected for the inner filter effect (Equation (4)) caused by the attenuation of the excitation and emission signals provoked by the light absorption of the flavonoids. Fcorr and Fobs are the corrected and observed fluorescence. Abex and Abem are the absorptions of the mixture at excitation and emission wavelength, respectively. The absorbance spectra were measured using a Perkin Elmer Lambda 35 UV-visible spectrophotometer (Shelton, CT, USA), and the fluorescence spectra were obtained using a Perkin Elmer LS 55 spectrofluorometer (Shelton, CT, USA). (3) Fratio=1-Φ[([…])/2nP0] (4) Fcorr=Fobs×10^Abex+Abem/2

The conditions of data set [4]: cited from earlier work.
The conditions of data set [5]: cited from earlier work. The source holds these as a separate data set.
Setting [6] is: 1,4-dioxane 0% (pure water), 25 °C, fit to Equation (2), read-out: association constant Ka (converted).
[7] abbreviates: 1,4-dioxane 20% w/w, 25 °C, fit to Equation (2), read-out: association constant Ka (converted).

Values after ≈ are worked out from the molar mass of the structure shown. Where two headings read alike, the source gives them in different places.

T1 sequence (P02768 25-609): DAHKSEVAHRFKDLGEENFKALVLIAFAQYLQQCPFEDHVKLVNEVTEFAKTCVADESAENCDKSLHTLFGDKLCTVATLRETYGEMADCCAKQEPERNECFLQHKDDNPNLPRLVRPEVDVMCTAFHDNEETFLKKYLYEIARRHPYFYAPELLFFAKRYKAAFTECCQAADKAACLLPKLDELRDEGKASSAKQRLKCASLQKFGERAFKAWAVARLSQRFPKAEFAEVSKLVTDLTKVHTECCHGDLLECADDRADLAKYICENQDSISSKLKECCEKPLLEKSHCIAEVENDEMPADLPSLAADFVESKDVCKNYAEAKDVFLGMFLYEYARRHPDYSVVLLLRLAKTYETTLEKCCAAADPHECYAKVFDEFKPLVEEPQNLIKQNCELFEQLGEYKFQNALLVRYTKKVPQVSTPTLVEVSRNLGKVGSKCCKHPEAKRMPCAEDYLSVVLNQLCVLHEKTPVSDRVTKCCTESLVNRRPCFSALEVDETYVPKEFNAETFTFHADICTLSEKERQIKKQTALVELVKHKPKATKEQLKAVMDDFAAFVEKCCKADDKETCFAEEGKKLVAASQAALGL

`C(=CC=Cc1ccccc1)C=Cc1ccccc1` [DPH, 1,6-diphenyl-1,3,5-hexatriene]: the Kd in data set [1] (setting [6]) is 505 nM; in data set [1] (1,4-dioxane 10% w/w, 25 °C, fit to Equation (2), read-out: association constant Ka (converted)), 1890 nM; in data set [1] (setting [7]) it was 5880 nM; in data set [1] (Figure 4, printed as (10%) 1,4-dioxane, read-out: Ka (means and SD of triplicates) (converted)) it was 2220 nM; in data set [1] (Figure 4, printed as (20%) 1,4-dioxane, read-out: Ka (means and SD of triplicates) (converted)) it was 485 nM; in data set [1] (NaCl 1.0 mol L^−1 (dielectric constant 69.3), read-out: binding constant Ka (converted)), 4350 nM. For the same compound, in data set [1] (pure water (dielectric constant 80.3), NaCl comparison experiment, read-out: binding constant Ka (converted)), the Kd was 1010 nM. The “HSA concentration needed to reach saturation” value in data set [1] (1,4-dioxane (20%)) was 10 µM; in data set [1] (pure water), 2.0 µM. Also, the “lower HSA concentration at saturation when the solvent was absent” value in data set [1] (no solvent vs 1,4-dioxane) stood at 5 fold. In addition, the average fluorescence lifetime in data set [2] (20% 1,4-dioxane with HSA added) was 7.1 nanoseconds; in data set [2] (20% 1,4-dioxane, no protein) it was 2.6 nanoseconds; in data set [2] (pure 1,4-dioxane), 7.8 nanoseconds.
As for `CCCCCCCCOC(=O)c1cc(O)c(O)c(O)c1` [OG, octyl gallate], the Kd in data set [1] (setting [6]) was 192 nM; in data set [1] (setting [7]), 4550 nM. In addition, in data set [1] (pure water vs 20% 1,4-dioxane), the “increase of binding constant in pure water compared to 1,4-dioxane” value turned out to be 25 fold.
`O=c1c(O)c(-c2ccc(O)c(O)c2)oc2cc(O)cc(O)c12` [quercetin]: the “effect of 1,4-dioxane on binding strength” value in data set [3] is on record as “decreased”. Besides, the water solubility in data set [4] was 60 µg/mL (≈ 199 µM). Besides, the logP in data set [5] was 0.35.
`C[C@@H]1O[C@@H](OC[C@H]2O[C@@H](Oc3c(-c4ccc(O)c(O)c4)oc4cc(O)cc(O)c4c3=O)[C@H](O)[C@@H](O)[C@@H]2O)[C@H](O)[C@H](O)[C@H]1O` [rutin]: in data set [3], the “effect of 1,4-dioxane on binding strength” value is on record as “not”. The log partition coefficient (logP) in data set [5] was −2.28.
